Source: patent publication US8067458B2, “Alkoxyalkyl-substituted cyclic ketoenols” (Bayer Cropscience AG, priority 2006, dated 2011)
“And” between values parts separate entries of the source, which are not always exact repeats. Equal values may be shown once. Read-outs that look alike come from different tables or passages of the source.

What was measured:
Maize - CECILIA = assay: Greenhouse container trials with maize, safener 1 day prior to herbicide application, pre-emergence; type: in vivo; settings: 50 g a.i./ha, 28 days after application
Protocol: (§1) Seeds of monocotyledonous and dicotyledonous weed plants and crop plants are placed in sandy loam soil in wood fibre pots or in plastic pots and are covered with earth. The pots are easily fitted and then the soil surface is treated with the test compounds, formulated as wettable powders (WP) or liquids (EC) in various dosages, with a water application rate of 300 l/ha (converted). […] If the testing is also to look at whether safeners can improve the tolerance of the crop plants for test substances, the following options are used for the application of the safener: • seeds of the crop plants are dressed with the safener substance prior to sowing (the amount of safener is stated as a percentage, based on the seed weight) • crop plants are sprayed with the safener, with a defined application rate per hectare, prior to application of the test substances (typically 1 day before the test substances are applied) • the safener is applied together with the test substance in the form of a tank mix (the amount of safener is reported in g/ha or as a proportion relative to the herbicide). By comparing the effect of test substances on crop plants which have been treated with safener and without safener it is possible to assess the effect of the safener substance.

Maize - Arsenal = assay: as above; type: in vivo; settings: 28 days after application
Protocol: as §1

[1] = Determination of the log P values by HPLC on a reversed phase column (C18); type: physicochemical; settings: 43° C., EEC Directive 79/831 Annex V.A8
Protocol: The log P values reported in the table were determined in accordance with EEC Directive 79/831 Annex V.A8 by means of HPLC (high performance liquid chromatography) on a reversed phase column (C18). Temperature: 43° C. […] Calibration was carried out with unbranched alkan-2-ones (having 3 to 16 carbon atoms) whose log P values are known (log P values determined on the basis of the retention times by means of linear interpolation between two successive alkanones).

Spring barley = type: in vivo; settings: post-emergence
Spring wheat = type: in vivo; settings: post-emergence
[2] = tested on: caterpillars of the army worm (Spodoptera frugiperda); assay: Spodoptera frugiperda test (spray treatment); type: in vivo; settings: 500 g/ha, maize leaf discs
Protocol: Solvent: 78 parts by weight of acetone • • 1.5 parts by weight of dimethylformamide Emulsifier: 0.5 part by weight of alkylaryl polyglycol ether A suitable preparation of active compound is prepared by mixing 1 part by weight of active compound with the stated amounts of solvent and emulsifier and diluting the concentrate with emulsifier-containing water to the desired concentration. Leaf discs of maize (Zea mays) are sprayed with a preparation of active compound at the desired concentration and after they have dried are populated with caterpillars of the army worm (Spodoptera frugiperda).

[3] = Penetration of active compounds through enzymatically isolated cuticles of apple leaves; settings: spray liquor on isolated cuticles; 20° C., 60% rh; average of 5 to 6 measurements
[4] = 10 days after application, 25 g a.i./ha
[5] = 10 days after application, 50 g a.i./ha
[6] = 28 days after application, 25 g a.i./ha
[7] = 28 days after application, 50 g a.i./ha
[8] = 10 days after application, 12.5 g a.i./ha
[9] = 10 days after application, 100 g a.i./ha
[10] = 28 days after application, 100 g a.i./ha
[11] = 25 g a.i./ha, 10 days after application
[12] = 50 g a.i./ha, 10 days after application

## CCc1cc(Cl)cc(OC)c1C1=C(OC(=O)C(C)C)C(C)(COC)NC1=O (racemic) [I-b-10]
Maize - CECILIA
  Maize - CECILIA observed (%): 15%
Maize - Arsenal; 12.5 g a.i./ha
  Maize - Arsenal observed (%): 5%
Maize - Arsenal; 25 g a.i./ha
  Maize - Arsenal observed (%): 15%
Maize - Arsenal; 50 g a.i./ha
  Maize - Arsenal observed (%): 25%

## COCC(C)(NC(=O)Cc1c(C2CC2)cc(C)cc1C1CC1)C(=O)OC (stereo not shown) [II-27]
[1]
  logP: logP 3.19

## CCc1cc(C)cc(OC)c1C1=C(OC(=O)C(C)C)C(C)(COC)NC1=O (racemic) [I-b-9]
Spring barley; [4]
  Spring barley observed (%): 25%
Spring barley; [5]
  Spring barley observed (%): 75%
Spring barley; [6]
  Spring barley observed (%): 25%
Spring barley; [7]
  Spring barley observed (%): 70%
Spring wheat; [8]
  Spring wheat observed (%): 15%
Spring wheat; [4]
  Spring wheat observed (%): 60%
Spring wheat; [6]
  Spring wheat observed (%): 60%
Spring wheat; [7]
  Spring wheat observed (%): 85%

## CCc1cc(Cl)cc(OC)c1C1=C(O)C(C)(COC)NC1=O (racemic) [I-a-10]
Spring wheat; 28 days after application, 12.5 g a.i./ha
  Spring wheat observed (%): 5%
Spring wheat; [6]
  Spring wheat observed (%): 15%
Spring wheat; [7]
  Spring wheat observed (%): 25%

## CCc1cc(C)cc(C)c1C1=C(OC(=O)COC)C(C)(COC)NC1=O (racemic) [I-b-11]
Spring barley; [8]
  Spring barley observed (%): 10%
Spring barley; [4]
  Spring barley observed (%): 15%
Spring barley; [5]
  Spring barley observed (%): 50%
Spring barley; [9]
  Spring barley observed (%): 70%
Spring barley; [7]
  Spring barley observed (%): 25%
Spring barley; [10]
  Spring barley observed (%): 55%
Spring wheat; [4]
  Spring wheat observed (%): 10%
Spring wheat; [5]
  Spring wheat observed (%): 60%
Spring wheat; [6]
  Spring wheat observed (%): 10%
Spring wheat; [7]
  Spring wheat observed (%): 50%

## CCc1cc(C)cc(C2CC2)c1CC(=O)NC(C)(COC)C(=O)OC (racemic) [II-20]
[1]
  logP: oil logP 3.13

## CCc1cc(C)cc(Br)c1CC(=O)NC(C)(CCOC)C(=O)OC (stereo not shown) [II-35]
[1]
  logP: logP 3.39

## CCc1cc(C)cc(C)c1CC(=O)NC(C)(CCOC)C(=O)OC (stereo not shown) [II-28]
[1]
  logP: logP 3.19

## COCC1(C)NC(=O)C(c2c(C)cc(C)cc2Cl)=C1O (racemic) [I-a-12]
[2]
  activity (effect in %, caterpillars killed): ≥ 80%

## CCOc1cc(Cl)cc(CC)c1CC(=O)NC(C)(CCOC)C(=O)OC (stereo not shown) [II-34]
[1]
  logP: logP 3.64

## N.N.O=S(=O)(O)O [ammonium sulphate]
[3]
  penetration through apple leaf cuticles (effect of additive, in words): significantly improves the penetration

## COCCC(C)(NC(=O)Cc1c(C)cc(C)cc1C)C(=O)OC (stereo not shown) [II-29]
[1]
  logP: logP 2.86

## CCc1cc(C)cc(Br)c1C1=C(O)C(C)(COC)NC1=O (racemic) [I-a-6]
Spring wheat; [7]
  Spring wheat observed (%): 20%
Spring wheat; [10]
  Spring wheat observed (%): 30%

## CCc1cc(C)cc(C)c1C1=C(OC(=O)C(C)C)C(C)(COC)NC1=O (racemic) [I-b-4]
Spring barley; [11]
  Spring barley observed (%): 30%
Spring barley; [12]
  Spring barley observed (%): 40%
Spring barley; [5]
  Spring barley observed (%): 25%
Spring barley; [9]
  Spring barley observed (%): 65%
Spring wheat; 12.5 g a.i./ha, 10 days after application
  Spring wheat observed (%): 30%
Spring wheat; [11]
  Spring wheat observed (%): 50%
Spring wheat; [12]
  Spring wheat observed (%): 70%
Spring wheat; [4]
  Spring wheat observed (%): 10%
Spring wheat; [5]
  Spring wheat observed (%): 50%
Spring wheat; [9]
  Spring wheat observed (%): 75%
Spring wheat; [6]
  Spring wheat observed (%): 10%
Spring wheat; 28 days after application, 50 g a.i./ha, listed as Ex. I-b-4
  Spring wheat observed (%): 15% and 5%
Spring wheat; [10]
  Spring wheat observed (%): 30%

## CCc1cc(Cl)cc(OC)c1CC(=O)NC(C)(CCOC)C(=O)OC (stereo not shown) [II-33]
[1]
  logP: logP 3.21
